In the assay the test system is NCI. Put plainly: Antineoplastic activity against NCI human leukemia cancer cell line. The assay is classed as functional.

Molecules are shown by their SMILES. Values joined by “and” are separate entries in the source; they are usually repeats but may differ in a detail not shown here. Equal entries are not always repeated.

Consider `CC[C@H](C)[C@@H]1NC(=O)C(C)NC(=O)[C@H](CCSC)NC(=O)C(C)NC(=O)[C@H](CC(N)=O)NC(=O)[C@H](Cc2ccccc2)NC(=O)C2CCCN2C1=O` (single isomer, unassigned) [PHAKELLI STATIN 5], for which the GI50 was 3000 nM and 600 nM.

By GI50 is commonly meant the concentration that inhibits growth by half. The low end stands for greater sensitivity of the cells, the high end for lower sensitivity of the cells.
